Test results from the supplement of paper PMC10307832.

Assays:
Experiment in all cases: relative viability (nuclei count vs DMSO), 5 days (fraction); higher = more cells survive
IU1-47 + Pictilisib = compound: CC1=CC(=C(N1C2=CC=C(C=C2)Cl)C)C(=O)CN3CCCCC3 [IU1-47] + CS(=O)(=O)N1CCN(Cc2cc3nc(-c4cccc5[nH]ncc45)nc(N4CCOCC4)c3s2)CC1 [Pictilisib] (partner 1 µM)
How it was run: (§1)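 Lung cancer cell lines, seeded in 1536-well plates, were treated the following day by pin tool with a single drug or with five library-drug doses (not always all listed) in √10 steps on top of a fixed anchor-drug dose. Cells were fixed and nuclei stained in one step after 5 days, and nuclei were counted. Relative viability is the nuclei count for treated wells divided by that for vehicle wells, reported as medians of duplicate plates.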

IU1-47 + Crizotinib = compound: CC1=CC(=C(N1C2=CC=C(C=C2)Cl)C)C(=O)CN3CCCCC3 [IU1-47] + C[C@@H](Oc1cc(-c2cnn(C3CCNCC3)c2)cnc1N)c1c(Cl)ccc(F)c1Cl [Crizotinib] (partner 1 µM)
How it was run: as §1

FG-4592 + Trametinib = compound: Cc1nc(C(=O)NCC(=O)O)c(O)c2ccc(Oc3ccccc3)cc12 [FG-4592] + CC(=O)Nc1cccc(-n2c(=O)n(C3CC3)c(=O)c3c(Nc4ccc(I)cc4F)n(C)c(=O)c(C)c32)c1 [Trametinib] (partner 0.02 µM)
How it was run: as §1

FG-4592 + Bortezomib = compound: Cc1nc(C(=O)NCC(=O)O)c(O)c2ccc(Oc3ccccc3)cc12 [FG-4592] + CC(C)C[C@H](NC(=O)[C@H](Cc1ccccc1)NC(=O)c1cnccn1)B(O)O [Bortezomib] (partner 0.002 µM)
How it was run: as §1

UMC-11
relative viability (IU1-47 + Pictilisib; first compound 0.08 µM): 0.678
relative viability (IU1-47 + Pictilisib; first compound 0.253 µM): 0.75
relative viability (IU1-47 + Pictilisib; first compound 0.8 µM): 0.868
relative viability (IU1-47 + Pictilisib; first compound 2.53 µM): 1.01
relative viability (IU1-47 + Pictilisib; first compound 8 µM): 0.743
relative viability (IU1-47 + Crizotinib; first compound 0.08 µM): 0.564
relative viability (IU1-47 + Crizotinib; first compound 0.253 µM): 0.641
relative viability (IU1-47 + Crizotinib; first compound 0.8 µM): 0.476
relative viability (IU1-47 + Crizotinib; first compound 2.53 µM): 0.673
relative viability (IU1-47 + Crizotinib; first compound 8 µM): 0.574
relative viability (FG-4592 + Trametinib; first compound 0.08 µM): 0.626
relative viability (FG-4592 + Trametinib; first compound 0.253 µM): 0.697
relative viability (FG-4592 + Trametinib; first compound 0.8 µM): 0.504
relative viability (FG-4592 + Trametinib; first compound 2.53 µM): 0.528
relative viability (FG-4592 + Trametinib; first compound 8 µM): 0.452
relative viability (FG-4592 + Bortezomib; first compound 0.08 µM): 0.752
relative viability (FG-4592 + Bortezomib; first compound 0.253 µM): 0.771
relative viability (FG-4592 + Bortezomib; first compound 0.8 µM): 0.633
relative viability (FG-4592 + Bortezomib; first compound 2.53 µM): 0.75
relative viability (FG-4592 + Bortezomib; first compound 8 µM): 0.692
